With `CC(=O)/C=C(/C)O`, the pKa (commonly the negative logarithm of the acid dissociation constant) (acidic group) came out at 7.64.

`Nc1ccc2cc3ccc4ccccc4c3nc2c1`: the pKa (basic group) was 6.72.

In turn, `Oc1ccc(Cl)cc1C[NH+]1CCCCC1` had a pKa (acidic group) of 8.14.

With `CC(C)CCC1C(=O)C(O)C(CCC(C)C)(CCC(C)C)C1=O` (stereo not given), the pKa (acidic group) amounted to 6.3.

Turning to `Cc1ccc2ccccc2c1C(=O)O`, under “acidic group”, the pKa amounted to 3.11.

Consider `O=C(O)C(CO)c1ccccc1` (stereo not given), for which the pKa (acidic group) amounted to 4.23.

Where the note is “acidic group”, `O=C([O-])C[NH+](CCNS(=O)(=O)c1ccccc1)CC(=O)[O-]` showed a pKa of 7.82.

Turning to `c1ccc(-c2nc3cnccc3[nH]2)cc1`, the pKa reads like this: (acidic group) 10.3; (basic group) 6.

Turning to `COc1ccncc1`, the pKa (basic group) stood at 6.65.

As for `Clc1ccccc1-c1nnn[nH]1`, for the setting “acidic group”, the pKa worked out at 3.69.

As to `O=C(O)C1CCCC1`, for the setting “acidic group”, the pKa turned out to be 4.99.

Where the note is “acidic group”, `COc1cccc2c1-c1c(O)cccc1-2` registered a pKa of 9.15.

On to `COC(=O)c1ccncc1`, for which the pKa (basic group) was determined as 3.38.

As for `Cc1cccc(C)c1NC(=O)CNCC(C)C`, where the note is “basic group”, the pKa was determined as 7.83.

`COc1ccc(O)cc1C`: the pKa (acidic group) was found to be 10.2.

In turn, `O=C([O-])c1ccc2ncccc2c1` returned a pKa (basic group) of 4.82.

For the setting “basic group”, `CC(CC(C#N)(c1ccccc1)c1ccccc1)N1CCOCC1` (stereo not given) returned a pKa of 6.1.

For the molecule `Oc1c(Cl)c(Cl)cc(Cl)c1C[NH+]1CCOCC1`, for the setting “acidic group”, the pKa amounted to 4.92.

In the case of `CC(C)(OO)c1ccccc1`, the pKa (acidic group) amounted to 12.6.

Under “basic group”, `CCCCNCc1ccccc1` gave a pKa of 9.46.

The molecule `C=CCC(C)(CN(CC)CC)OC(C)=O` (stereo not given) had a pKa (basic group) of 9.85.

Under “basic group”, `CN([NH3+])C(N)=S` came in with a pKa of 1.2.

In turn, `Cc1ccc(Br)cc1C(=O)O` came in with a pKa (acidic group) of 3.58.

For `N#CC(C#N)c1ccc([N+](=O)[O-])cc1`, the pKa (acidic group) came out at 2.35.

In turn, `CCP(=S)(CC)C(=S)NN` displayed a pKa (basic group) of 5.6.

Molecule `Cc1cc2nnn(O)c2cc1Cl` registered a pKa (acidic group) of 4.57.

In turn, `OCCCCCc1ccccn1` registered a pKa (basic group) of 5.93.

On to `O=C(O)C[C@]1(O)C[C@@H]2C=C[C@H]1C2`, for which, under “acidic group”, the pKa was 4.36.

For `CCCCCN(CCO)CC(O)CC` (stereo not given), the pKa (basic group) amounted to 9.1.

`O=C1CCC(C2CCCCC2)C(=O)C1` (stereo not given): for the setting “acidic group”, the pKa was found to be 5.5.

In turn, `CC(=O)NCCN` had a pKa (basic group) of 9.28.

For the molecule `c1cc(-c2ccncc2)ccn1`, the pKa (basic group) amounted to 4.82.

For `CCN(CC)CCNc1nc(C)cc(N)n1`, the pKa (basic group) was found to be 9.8.

As for `O=c1[nH]c(=O)c2ncn([C@H]3O[C@@H](CO)[C@H](O)[C@@H]3O)c2[nH]1`, the pKa (acidic group) stood at 5.72.

In the case of `Cc1ccc(NC(=O)CN2CCCCC2)c(C)c1`, where the note is “basic group”, the pKa came out at 7.8.

With `CC(O)CN(Cc1ccccc1)CC(C)O` (stereo not given), under “basic group”, the pKa was 7.5.

`CSCc1ccccn1` gave a pKa (basic group) of 5.4.

`Nc1nc([O-])c2ncn([C@H]3O[C@@H](CO)[C@H](O)[C@@H]3O)c2n1` displayed a pKa (basic group) of 9.41.

With `N#CC(C#N)=NNc1ccc([N+](=O)[O-])cc1Cl`, the pKa is 4.15 (acidic group) and -0.62 (basic group).

As to `CNCCCNC`, the pKa (basic group) was 10.7.

With `Sc1ccc2ncccc2c1`, the pKa (acidic group) stood at 6.5.

Molecule `CN(C)c1ccc(N=O)cc1` displayed a pKa (basic group) of 4.54.

The molecule `NCCC(=O)c1ccccc1` returned a pKa (basic group) of 8.3.

Consider `CC1CCCNC1` (stereo not given), for which the pKa (basic group) turned out to be 10.9.

For the molecule `C/C(=N\O)C(=O)CO`, the pKa (acidic group) amounted to 9.16.

For the setting “acidic group”, `OC(c1ccncc1)(c1ccccn1)c1ccccn1` gave a pKa of 13.1.

Consider `C[Si](C)(C)OC1CN(Cc2ccccc2)C1`, for which the pKa (basic group) was 8.08.

`CCc1cc([N+](=O)[O-])cc(CC)c1O` showed a pKa (acidic group) of 7.73.

For the molecule `CCCCNCCCCCCNCCCC`, the pKa (basic group) worked out at 11.3.

As for `CC(=S)NCc1ccccc1`, for the setting “acidic group”, the pKa was 13.

`C#CC#CC=C=CC(O)CCC(=O)O` (stereo not given) showed a pKa (acidic group) of 4.8.

The molecule `C=Cc1ccc(C)nc1` returned a pKa (basic group) of 5.67.

For the molecule `C1CCN(C2CCNCC2)CC1`, the pKa (basic group) came out at 10.7.

Under “acidic group”, `O=C1Nc2ccccc2C1=O` gave a pKa of 11.9.

Molecule `CN(C)c1ccc2cc3ccc(N(C)C)cc3nc2c1` showed a pKa (basic group) of 10.4.

For the setting “acidic group”, `O=C1COC(=O)C1Cl` (stereo not given) had a pKa of 2.13.

Turning to `COc1cccc(C(=O)N[C@H]2C[C@H]3CC[C@@H](C2)N3Cc2ccccc2)c1OC`, the pKa (basic group) came to 8.91.

Regarding `CC(C)(C)C(=O)CC(=O)C(C)(C)C`, the pKa (acidic group) worked out at 11.8.

For the molecule `CN(C)c1ccc(C(=S)Nc2ccccc2)cc1`, for the setting “acidic group”, the pKa was determined as 11.2.

For the molecule `CN1CCC1`, the pKa (basic group) stood at 10.4.

Molecule `Cc1cn2nc(-c3ccccc3)ccc2n1` had a pKa (basic group) of 5.09.

Turning to `CCN(CC)CCCNc1c2ccccc2[nH+]c2ccccc12`, the pKa (basic group) came out at 8.53.

On to `CC#CCC(=O)O`, for which, where the note is “acidic group”, the pKa worked out at 3.6.

Take `Oc1ccc2ncccc2c1`: the pKa by setting is: (acidic group) 8.82; (basic group) 5.26.

Take `C=CC[NH+](CC=C)CCCNC(=O)/C=N/O`: under “acidic group”, the pKa is 8.14.

Turning to `C[NH+]1CSC[C@H]1C(=O)O`, the pKa (acidic group) worked out at 1.51.

Consider `[O-][n+]1cnc(NCc2ccccc2)c2nc[nH]c21`, for which the pKa runs as follows: (acidic group) 7.27; (basic group) 2.86.

Molecule `Nc1ccc(S(=O)(=O)Nc2ccc(O)cn2)cc1` registered a pKa (acidic group) of 7.5.

For the molecule `Cc1cccc(C(=O)[O-])c1O`, the pKa (acidic group) was determined as 14.4.

As for `C[n+]1nc(O)ccc1[O-]`, the pKa (acidic group) turned out to be 5.65.

`CCN(CC)CCCCC#N` yielded a pKa (basic group) of 10.1.

Under “basic group”, `CCCCCCNCCC(=O)[O-]` showed a pKa of 10.6.

In the case of `CCCC[NH2+]CC/C(N)=N/O`, the pKa (basic group) is 3.75.

Under “basic group”, `CNCC(=O)[O-]` showed a pKa of 10.1.

As for `CCCN(CC(C)O)CC(C)O` (stereo not given), the pKa (basic group) amounted to 8.9.

For the setting “acidic group”, `COc1cc(OC)nc(NS(=O)(=O)c2ccc(O)cc2)n1` showed a pKa of 7.29.

Turning to `C[N-]C(=O)Oc1ccc2c(c1)[C@@]1(C)CCN(C)[C@H]1N2C`, where the note is “basic group”, the pKa was 12.2.

`CC(c1ccc([N+](=O)[O-])cc1)[N+](=O)[O-]` (stereo not given) showed a pKa (acidic group) of 6.51.

As for `CC(C)C1CC(CC(=O)[O-])NC1C(=O)[O-]` (stereo not given), where the note is “basic group”, the pKa stood at 10.4.

For `COc1ccc(O)c(CNC(CO)C(=O)[O-])c1` (stereo not given), the pKa amounted to 10.4 (acidic group) and 8.3 (basic group).

As for `Cc1ccccc1NN=C(C#N)C#N`, the pKa runs as follows: (acidic group) 6.9; (basic group) -0.84.

With `Oc1cc(-c2ccccc2)n[nH]1`, for the setting “acidic group”, the pKa was determined as 11.4.

`Cc1ccccc1/C(=N/CCC[NH+](C)C)c1ccccc1`: the pKa (basic group) was found to be 4.29.

In turn, `CCCN(CCC)CCCNC(=O)/C=N/[O-]` had a pKa (basic group) of 10.3.

In turn, `COCCCCNc1ccccc1` came in with a pKa (basic group) of 4.6.

For the setting “basic group”, `COc1ncc2ccccc2n1` showed a pKa of 1.31.

The molecule `CC/C(=N/O)C(C)=O` had a pKa (acidic group) of 9.38.

In the case of `O=C(O)c1ccc(Br)c([N+](=O)[O-])c1`, the pKa (acidic group) is 3.24.

Where the note is “basic group”, `CCc1ccc(/N=N/c2ccc(N(C)C)cc2)cc1C` had a pKa of 2.6.

`Cn1cc(N)cn1` gave a pKa (basic group) of 5.52.

The molecule `Nc1ccc(Cl)cn1` showed a pKa (basic group) of 4.83.

As for `N#Cc1ccc(N)c2ccccc12`, the pKa (basic group) was 1.2.

Molecule `O=C(O)C1CC1` registered a pKa (acidic group) of 4.83.

Take `CCN(CC)Cc1cc(OC)ccc1O`: the pKa by setting is: (acidic group) 10.9; (basic group) 8.62.

Where the note is “basic group”, `c1cc([C@@H]2CCCN2)nc([C@@H]2CCC[NH2+]2)c1` registered a pKa of 9.39.

Molecule `Cc1cc(Br)ccc1C(=O)O` returned a pKa (acidic group) of 3.77.

Take `COc1ccccc1/C=C/C(=O)O`: the pKa (acidic group) worked out at 4.57.

In the case of `Nc1cccc2nc3ccccc3c(N)c12`, the pKa (basic group) stood at 11.

The values above are taken from the pKa sets of Baltruschat and Czodrowski (2020).
